# Results: US20260098008A1, “COVALENT, CHEMOGENETIC ACTIVATORS FOR K2P POTASSIUM CHANNELS AND USES THEREOF” (THE REGENTS OF THE UNIVERSITY OF CALIFORNIA, priority 2022, published 2026)
# Positions count from the first letter of the chain named.
# Tests used:
# [1] = molecular target: T1, A286F K2P2.1 (TREK-1) (Mus musculus, UniProt P97438, A301F); assay: TEVC in Xenopus oocytes, attenuated channels; assay type: cell-based; conditions: 20 μM; sequential addition of ML335, CAT335, BL-1249; 0 mV
# T1 construct: expressed in transfected cells; host or cells: Xenopus laevis oocytes injected with mRNA
# T1 sequence (P97438 1-411 isoform P97438-2 A286F): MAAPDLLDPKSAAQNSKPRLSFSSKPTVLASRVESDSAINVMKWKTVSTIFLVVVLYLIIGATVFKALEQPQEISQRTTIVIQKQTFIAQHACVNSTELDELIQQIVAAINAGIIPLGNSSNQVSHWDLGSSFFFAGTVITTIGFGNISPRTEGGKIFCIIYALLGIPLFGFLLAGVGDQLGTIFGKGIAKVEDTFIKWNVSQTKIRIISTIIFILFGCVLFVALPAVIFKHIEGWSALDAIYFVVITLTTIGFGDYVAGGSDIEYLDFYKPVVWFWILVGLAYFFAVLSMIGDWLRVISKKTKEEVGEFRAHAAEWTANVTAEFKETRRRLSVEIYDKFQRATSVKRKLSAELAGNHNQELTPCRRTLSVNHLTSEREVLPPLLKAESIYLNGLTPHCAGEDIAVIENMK
# Description: (§1) Mouse K2P2.1 (TREK-1) (Genbank accession number: NP_034737.2), mouse K2P10.1 (TREK-2) (NM_001316665.1), mouse K2P4.1 (TRAAK) (NM_008431.3), human K2P4.1 (TRAAK) (NM_033310.2) and mouse K2P18.1(TRESK) (NM_207261.3) were used for this study. Point mutations were introduced by site-directed mutagenesis using custom primers and confirmed by sequencing before use. For studies using Xenopus oocytes, K2P channels were subcloned into a previously reported pGEMHE/pMO vector (46). For expression in HEK293 cells, mouse K2P2.1 (TREK-1) and mutants were expressed from a previously described pIRES2-EGFP vector in HEK293 cells (46,47). K2P2.1 (TREK-1) tandems were constructed by connecting the open reading frames for the individual subunits with a linker encoding the […] (SEQ ID NO: 19) sequence. Tandems used for HEK293 cells included an N-terminal HA tag ([…] (SEQ ID NO: 20)) on the first subunit.
# (§2) Xenopus laevis oocytes were harvested according to UCSF IACUC Protocol AN129690 and digested using collagenase (Worthington Biochemical Corporation, #LS004183, 0.8-1.0 mg/mL) in Ca^21-free ND96 (96 mM NaCl, 2 mM KCl, 3.8 mM MgCl2, 5 mM HEPES pH 7.4) immediately post-harvest, as previously reported (31,33). Oocytes were maintained at 18° C. in ND96 (96 mM NaCl, 2 mM KCl, 1.8 mM CaCl2, 2 mM MgCl2, 5 mM HEPES pH 7.4) supplemented with antibiotics (100 units mL^−1 penicillin, 100 μg mL^−1 streptomycin, 50 μg mL^−1 gentimycin) and used for experiments within one week of harvest.
# (§3) Defolliculated stage V-VI oocytes were microinjected with 0.5-36 ng mRNA and currents were recorded within 16-48 h hours of injection.
# (§4) For recordings, oocytes were impaled with borosilicate recording microelectrodes (0.4-2.0 MΩ resistance) backfilled with 3 M KCl and were subjected to constant perfusion of ND96 at a rate of 3 ml min^−1. Recording solutions containing K2P activators were prepared immediately prior to use from DMSO stocks (20-100 mM), with final DMSO concentrations of 0.1%. Currents were evoked from a −80 mV holding potential followed by a 300 ms ramp from −150 mV to +50 mV. Data were recorded using a GeneClamp 500B amplifier (MDS Analytical Technologies) controlled by pCLAMP8 software (Molecular Devices), and digitized at 1 kHz using Digidata 1332 Å digitizer (MDS Analytical Technologies). For each recording, control solution (ND96) was perfused over a single oocyte until current was stable before switching to solutions containing the test compounds at various concentrations. Representative traces and dose response plots were generated in GraphPad Prism 9.
# [2] = molecular target: T2, G171F K2P2.1 (TREK-1) (Mus musculus, UniProt P97438, G186F); assay: TEVC in Xenopus oocytes, attenuated channels; assay type: cell-based; conditions: 20 μM; sequential addition of ML335, CAT335, BL-1249; 0 mV
# T2 construct: expressed in transfected cells; host or cells: Xenopus laevis oocytes injected with mRNA
# T2 sequence (P97438 1-411 isoform P97438-2 G171F): T1 sequence (P97438 1-411 isoform P97438-2 A286F) with G171F, F286A
# Description: as §1, §2, §3, §4
compound,measurement,setting,value
"c1ccc(-c2nn[nH]n2)c(Nc2cccc3c2CCCC3)c1 [BL-1249, reference compound]",Fold-activation (I activator/I control),[1],19.4±1.3 fold
same,Fold-activation (I activator/I control),[2],3.8±0.5 fold
O=C(NCc1ccc(Cl)cc1Cl)c1ccc(N2C(=O)C=CC2=O)cc1 [CAT335],Fold-activation (I activator/I control),[1],insensitive
same,Fold-activation (I activator/I control),[2],insensitive
"CS(=O)(=O)Nc1ccc(C(=O)NCc2ccc(Cl)cc2Cl)cc1 [ML335, reference compound]",Fold-activation (I activator/I control),[1],1-1.8 fold
same,Fold-activation (I activator/I control),[2],1-1.8 fold
